Assay results taken from ChEMBL document CHEMBL2169738, “Rational design of a low molecular weight, stable, potent, and long-lasting GPR103 aza-β3-pseudopeptide agonist” (J Med Chem, 2012).
Blank lines part the entries; values can stand above or below the compound they belong to. Activity calls are given as the source filed them. The rule behind the calls is not given here. Numbered stars: 1 amine (or outer) side, 2 acyl side, 3 side chain; on linkers, the order of the positions; unused ones are H or OH. Square brackets hold non-standard residues; d marks the D form. Peptide text beside a SMILES is read from it. * marks the point of attachment. Acetyl(2-(piperazin-1-yl)) = O=C(CN1CCNCC1)*; azaβ3hArg = N=C(N)NCCCN(CC(=O)[*:2])N[*:1]; Hydrazinoacetyl = O=C(CNN[*:1])[*:2]; X5 = O=C(CN(Cc1ccccc1)N[*:1])[*:2]; X9 = O=C(CN(CC1CCCCC1)N[*:1])[*:2]; X1 = O=C(CN(CC(O)CO)N[*:1])[*:2]; X3 = CCCCN(CC(=O)[*:2])N[*:1]; X4 = CCCN(CC(=O)[*:2])N[*:1]; X6 = O=C(CN(CCO)N[*:1])[*:2]; X2 = NC(=O)CN(Cc1ccccc1)N*; X8 = CN(CC(=O)[*:2])N[*:1]; X7 = O=C(CN1CCCN1)*

Key:
[1] = target: T1, Pyroglutamylated RF-amide peptide receptor (Homo sapiens, UniProt Q96P65); assay: Antagonist activity at human GPR103 expressed in CHO cells co-expressing Galpha16 assessed as inhibition of human 26RFa-induced increase in intracellular calcium level by fluorimetry; type: functional, cell-based
T1 sequence (Q96P65 whole entry): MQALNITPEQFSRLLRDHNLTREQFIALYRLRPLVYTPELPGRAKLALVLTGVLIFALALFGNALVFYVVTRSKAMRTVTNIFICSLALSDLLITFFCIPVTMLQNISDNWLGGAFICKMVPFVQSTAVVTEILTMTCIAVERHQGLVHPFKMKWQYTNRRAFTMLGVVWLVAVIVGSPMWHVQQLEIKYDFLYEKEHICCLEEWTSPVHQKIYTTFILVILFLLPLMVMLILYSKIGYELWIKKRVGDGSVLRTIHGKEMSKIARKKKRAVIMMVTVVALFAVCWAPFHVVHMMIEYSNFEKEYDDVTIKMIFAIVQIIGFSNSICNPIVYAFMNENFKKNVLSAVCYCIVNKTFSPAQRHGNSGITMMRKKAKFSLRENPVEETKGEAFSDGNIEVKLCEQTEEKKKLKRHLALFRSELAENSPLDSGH

[2] = target: T1, Pyroglutamylated RF-amide peptide receptor; assay: Agonist activity at human GPR103 expressed in CHO cells co-expressing Galpha16 assessed as increase in intracellular calcium level measured for 2 mins by fluorimetry; type: functional, cell-based
Mus musculus [3] = assay: Orexigenic effect in Swiss albino CD1 mouse at 1.2 nmol, icv measured after every 30 mins for 60 to 90 mins; type: functional, organism-based
Mus musculus [4] = assay: Orexigenic effect in icv dosed Swiss albino CD1 mouse assessed as cumulative food intake measured after 2 hrs; type: functional
[5] = Half life in human serum by RP-HPLC; type: ADME, cell-free
Mus musculus [6] = assay: Orexigenic effect in Swiss albino CD1 mouse at 0.012 to 1.2 nmol, icv measured for 30 mins; type: functional, organism-based
[7] = target: T1, Pyroglutamylated RF-amide peptide receptor; assay: Displacement of [125I]26RFa from human GPR103 expressed in HEK293 cells incubated for 1 h by gamma counter based method; type: cell-based
Mus musculus [8] = assay: Orexigenic effect in Swiss albino CD1 mouse at 0.012 to 1.2 nmol, icv after 30 mins; type: functional, organism-based
Serum [9] = assay: Compound degradation in human serum assessed as breakdown of N-terminal region incubated for 15 mins by RP-HPLC; type: ADME, cell-free; conditions: 0.25 h
Mus musculus [10] = assay: Orexigenic effect in icv dosed Swiss albino CD1 mouse measured after every 30 mins; type: functional, organism-based
Serum [11] = assay: Compound degradation in human serum assessed as breakdown of N-terminal region incubated for 2 mins by RP-HPLC; type: ADME, cell-free
Mus musculus [12] = assay: Orexigenic effect in Swiss albino CD1 mouse at 1.2 nmol, icv measured after every 30 mins for 90 to 120 mins; type: functional, organism-based
Serum [13] = assay: Ratio of t1/2 of compound to t1/2 of 26RFa in human serum by RP-HPLC; type: ADME, cell-free

Structure (SMILES): CCCN(CC(=O)N[C@@H](Cc1ccccc1)C(=O)N[C@@H](CCCN=C(N)N)C(=O)N[C@@H](Cc1ccccc1)C(N)=O)NC(=O)[C@H](Cc1ccccc1)NC(=O)CNC(=O)CN (H-GGF[X4]FRF-NH2)
- IC50 [1]: > 10000 nM
- EC50 [2]: > 10000 nM

Structure (SMILES): N=C(N)NCCC[C@H](NC(=O)[C@H](Cc1ccccc1)NC(=O)CN(CCO)NC(=O)[C@H](Cc1ccccc1)NC(=O)CNC(=O)CN)C(=O)N[C@@H](Cc1ccccc1)C(N)=O (H-GGF[X6]FRF-NH2)
- EC50 [2]: 1090 nM

Structure (SMILES): CN(CC(=O)N[C@@H](Cc1ccccc1)C(=O)N[C@@H](CCCN=C(N)N)C(=O)N[C@@H](Cc1ccccc1)C(N)=O)NC(=O)[C@H](Cc1ccccc1)NC(=O)CNC(=O)CN (H-GGF[X8]FRF-NH2)
- EC50 [2]: 1100 nM

Structure (SMILES): NCC(=O)NCC(=O)N[C@@H](Cc1ccccc1)C(=O)NN(CC(=O)N[C@@H](Cc1ccccc1)C(=O)N[C@@H](CCCN=C(N)N)C(=O)N[C@@H](Cc1ccccc1)C(N)=O)CC1CCCCC1 (H-GGF[X9]FRF-NH2)
- EC50 [2]: 1370 nM

Structure (SMILES): CC(C)C[C@H](NC(=O)[C@H](CC(N)=O)NC(=O)CNC(=O)[C@H](CC(C)C)NC(=O)[C@@H]1CCCN1C(=O)CNC(=O)[C@H](CO)NC(=O)[C@@H](N)[C@@H](C)O)C(=O)N[C@@H](C)C(=O)N[C@@H](CCC(=O)O)C(=O)N[C@@H](CCC(=O)O)C(=O)N[C@@H](CC(C)C)C(=O)N[C@@H](CC(N)=O)C(=O)NCC(=O)N[C@@H](Cc1ccc(O)cc1)C(=O)N[C@@H](CO)C(=O)N[C@@H](CCCNC(=N)N)C(=O)N[C@@H](CCCCN)C(=O)N[C@@H](CCCCN)C(=O)NCC(=O)NCC(=O)N[C@@H](Cc1ccccc1)C(=O)N[C@@H](CO)C(=O)N[C@@H](Cc1ccccc1)C(=O)N[C@@H](CCCNC(=N)N)C(=O)N[C@@H](Cc1ccccc1)C(N)=O (H-TSGPLGNLAEELNGYSRKKGGFSFRF-NH2)
- half-life [5]: 6.9 min
- IC50 [7]: 1.26 nM

Structure (SMILES): N=C(N)NCCC[C@H](NC(=O)[C@H](Cc1ccccc1)NC(=O)CN(CC(O)CO)NC(=O)[C@H](Cc1ccccc1)NC(=O)CN1CCCN1)C(=O)N[C@@H](Cc1ccccc1)C(N)=O (some centres not stated) (X7-F[X1]FRF-NH2)
- EC50 [2]: 382 nM

Structure (SMILES): NC(=O)[C@H](Cc1ccccc1)NC(=O)[C@H](CCCN=C(N)N)NC(=O)[C@H](Cc1ccccc1)NC(=O)[C@H](CO)NC(=O)[C@H](Cc1ccccc1)NC(=O)CN1CCNCC1 ({Acetyl(2-(piperazin-1-yl))}-FSFRF-NH2)
- EC50 [2]: 138 nM

Structure (SMILES): N=C(N)NCCC[C@H](NC(=O)[C@H](Cc1ccccc1)NC(=O)CN(CC(O)CO)NC(=O)[C@H](Cc1ccccc1)NC(=O)CN1CCNCC1)C(=O)N[C@@H](Cc1ccccc1)C(N)=O (some centres not stated) ({Acetyl(2-(piperazin-1-yl))}-F[X1]FRF-NH2)
- Stability (Serum [9]): Stable
- Activity (Mus musculus [10]): Dose-dependent effect
- Stability (Serum [11]): Stable
- Activity (Mus musculus [12]): Active
- Activity (Mus musculus [4]): 1873 mg
- half-life [5]: 35.6 min
- IC50 [7]: 1990 nM
- EC50 [2]: 93.6 nM
- Ratio (Serum [13]): 5

Structure (SMILES): CCCN(CC(=O)N[C@@H](Cc1ccccc1)C(=O)N[C@@H](CCCNC(=N)N)C(=O)N[C@@H](Cc1ccccc1)C(N)=O)NC(=O)[C@H](Cc1ccccc1)NC(=O)CN1CCNCC1 ({Acetyl(2-(piperazin-1-yl))}-F[X4]FRF-NH2)
- EC50 [2]: 164 nM

Second part, led by results:

- IC50 [1]: > 10000 nM
- EC50 [2]: > 10000 nM
Structure (SMILES): NCC(=O)NCC(=O)N[C@@H](Cc1ccccc1)C(=O)N[C@@H](CO)C(=O)N[C@@H](Cc1ccccc1)C(=O)N[C@@H](CCCN=C(N)N)C(=O)NN(CC(N)=O)Cc1ccccc1 (H-GGFSFR-X2)

- half-life [5]: 11.2 min
- IC50 [7]: 8730 nM
Structure (SMILES): N=C(N)NCCC[C@H](NC(=O)[C@H](Cc1ccccc1)NC(=O)[C@H](CO)NC(=O)[C@H](Cc1ccccc1)NC(=O)CNC(=O)CN)C(=O)N[C@@H](Cc1ccccc1)C(N)=O (H-GGFSFRF-NH2)
- Activity (Mus musculus [3]): Active
- Activity (Mus musculus [4]): 1833 mg
- Activity (Mus musculus [6]): Active
- Activity (Mus musculus [8]): inactive

- IC50 [1]: > 10000 nM
- EC50 [2]: > 10000 nM
Structure (SMILES): NCC(=O)NCC(=O)N[C@@H](Cc1ccccc1)C(=O)N[C@@H](CO)C(=O)N[C@@H](Cc1ccccc1)C(=O)NN(CCCN=C(N)N)CC(=O)N[C@@H](Cc1ccccc1)C(N)=O (H-GGFSF[azaβ3hArg]F-NH2)

- IC50 [1]: > 10000 nM
- EC50 [2]: > 10000 nM
Structure (SMILES): NCC(=O)NCC(=O)N[C@@H](Cc1ccccc1)C(=O)N[C@@H](CO)C(=O)NN(CC(=O)N[C@@H](CCCN=C(N)N)C(=O)N[C@@H](Cc1ccccc1)C(N)=O)Cc1ccccc1 (H-GGFS[X5]RF-NH2)

- EC50 [2]: 341 nM
Structure (SMILES): NCC(=O)NCC(=O)N[C@@H](Cc1ccccc1)C(=O)NN(CC(=O)N[C@@H](Cc1ccccc1)C(=O)N[C@@H](CCCN=C(N)N)C(=O)N[C@@H](Cc1ccccc1)C(N)=O)CC(O)CO (some centres not stated) (H-GGF[X1]FRF-NH2)

- EC50 [2]: 29800 nM
Structure (SMILES): CCCCN(CC(=O)N[C@@H](Cc1ccccc1)C(=O)N[C@@H](CCCNC(=N)N)C(=O)N[C@@H](Cc1ccccc1)C(N)=O)NC(=O)[C@H](Cc1ccccc1)NC(=O)CNC(=O)CN (H-GGF[X3]FRF-NH2)

- EC50 [2]: 2340 nM
Structure (SMILES): NCC(=O)NCC(=O)NN(CC(=O)N[C@@H](CO)C(=O)N[C@@H](Cc1ccccc1)C(=O)N[C@@H](CCCN=C(N)N)C(=O)N[C@@H](Cc1ccccc1)C(N)=O)Cc1ccccc1 (H-GG[X5]SFRF-NH2)

- IC50 [7]: 2990 nM
- EC50 [2]: 136 nM
Structure (SMILES): N=C(N)NCCC[C@H](NC(=O)[C@H](Cc1ccccc1)NC(=O)[C@H](CO)NC(=O)[C@H](Cc1ccccc1)NC(=O)CNNC(=O)CN)C(=O)N[C@@H](Cc1ccccc1)C(N)=O (H-G[Hydrazinoacetyl]FSFRF-NH2)

- EC50 [2]: 429 nM
Structure (SMILES): N=C(N)NCCC[C@H](NC(=O)[C@H](Cc1ccccc1)NC(=O)[C@H](CO)NC(=O)[C@H](Cc1ccccc1)NC(=O)CNC(=O)CNN)C(=O)N[C@@H](Cc1ccccc1)C(N)=O (Hydrazinoacetyl-GFSFRF-NH2)
